17 compounds from US20240215577A1, “FUNGICIDAL PYRIDONES” (FMC Corporation, priority 2021, published 2024) can be followed below.

Assay type in all cases: in vivo
What all share (settings): 100 = 100% disease control, 0 = no control

The subject of assay [1] is Zymoseptoria tritici. Briefly: Test A: wheat leaf blotch, preventive spray on wheat seedlings. From the text: (§1) General protocol for preparing test suspensions for Tests A-F: the test compounds were first dissolved in acetone in an amount equal to 3% of the final volume and then suspended at the desired concentration (in ppm) in acetone and purified water (50/50 mix by volume) containing 250 ppm of the surfactant PEG400 (polyhydric alcohol esters). The resulting test suspensions were then used in Tests A-F.
The test solution was sprayed to the point of run-off on wheat seedlings. The following day the seedlings were inoculated with a spore suspension of Zymoseptoria tritici (the causal agent of wheat leaf blotch) and incubated in a saturated atmosphere at 24° C. for 48 h, and then moved to a growth chamber at 20° C. for 17 days, after which time disease ratings were made.
(§2) A rating of 100 indicates 100% disease control and a rating of 0 indicates no disease control (relative to the controls). A dash (-) indicates the compound was not tested.

Assay [2] concerns Alternaria solani. Briefly: Test F: tomato early blight, preventive spray on tomato seedlings.
Excerpt: as §1
The test suspension was sprayed to the point of run-off on tomato seedlings. The following day the seedlings were inoculated with a spore suspension of Alternaria solani (the causal agent of tomato early blight) and incubated in a saturated atmosphere at 27° C. for 48 h, and then moved to a growth chamber at 20° C. for 3 days, after which time visual disease ratings were made.
as §2

Assay [3] has as its system Phakopsora pachyrhizi. Description: Test D: Asian soybean rust, preventive spray on soybean seedlings.
Excerpt: as §1
The test solution was sprayed to the point of run-off on soybean seedlings. The following day the seedlings were inoculated with a spore suspension of Phakopsora pachyrhizi (the causal agent of Asian soybean rust) and incubated in a saturated atmosphere at 22° C. for 24 h and then moved to a growth chamber at 22° C. for 8 days, after which time visual disease ratings were made.
as §2

Assay [4] concerns Blumeria graminis f. sp. tritici. Briefly: Test C: wheat powdery mildew, preventive spray on wheat seedlings.
Excerpt: as §1
The test suspension was sprayed to the point of run-off on wheat seedlings. The following day the seedlings were inoculated with a spore dust of Blumeria graminis f. sp. tritici, (also known as Eysiphe graminis f. sp. tritici, the causal agent of wheat powdery mildew) and incubated in a growth chamber at 20° C. for 8 days, after which time visual disease ratings were made.
as §2

Assay [5] deals with Puccinia recondita f. sp. tritici. Briefly: Test B: wheat leaf rust, preventive spray on wheat seedlings.
Excerpt: as §1
The test solution was sprayed to the point of run-off on wheat seedlings. The following day the seedlings were inoculated with a spore suspension of Puccinia recondita f. sp. tritici (the causal agent of wheat leaf rust) and incubated in a saturated atmosphere at 20° C. for 24 h, and then moved to a growth chamber at 20° C. for 7 days, after which time visual disease ratings were made.
as §2

In assay [6] the test system is Botrytis cinerea. Description: Test E: tomato Botrytis, preventive spray on tomato seedlings.
Excerpt: as §1
The test suspension was sprayed to the point of run-off on tomato seedlings. The following day the seedlings were inoculated with a spore suspension of Botrytis cinerea (the causal agent of tomato Botrytis) and incubated in a saturated atmosphere at 20° C. for 48 h, and then moved to a growth chamber at 24° C. for 3 days, after which time visual disease ratings were made.
as §2

[7] abbreviates: Zymoseptoria tritici, 50 ppm, read-out: Test A disease control rating.
The mark [8] stands for this setting: Alternaria solani, 50 ppm, read-out: Test F disease control rating.
Setting [9] is: Phakopsora pachyrhizi, 216 h, 50 ppm, read-out: Test D disease control rating.
The mark [10] stands for this setting: Blumeria graminis, 50 ppm, read-out: Test C disease control rating.
[11] abbreviates: Puccinia recondita, 50 ppm, read-out: Test B disease control rating.
Where [12] appears, read: Botrytis cinerea, 50 ppm, read-out: Test E disease control rating.

Consider `Cn1cc(-c2cc(F)ccc2Cl)c(-c2ccc(F)cc2Cl)c(Cl)c1=O` [Compound 1], for which the “Test A disease control rating” value in assay [1] (50 ppm) is 100%. The “Test F disease control rating” value in assay [2] (50 ppm) amounted to 46%. In addition, in assay [3] (50 ppm), the “Test D disease control rating” value was 0%. The “Test C disease control rating” value in assay [4] (50 ppm) stood at 0%. Moreover, the “Test B disease control rating” value in assay [5] (50 ppm) was 100%. Also, in assay [6] (50 ppm), the “Test E disease control rating” value came to 98%.
`Cn1cc(-c2cc(F)ccc2Cl)c(-c2ccc(F)cc2Cl)c(I)c1=O` [Compound 2]: in assay [1] (50 ppm), the “Test A disease control rating” value is 100%. In addition, in assay [2] (50 ppm), the “Test F disease control rating” value was found to be 33%. Further, the “Test D disease control rating” value in assay [3] (50 ppm) was 0%. Also, in assay [4] (50 ppm), the “Test C disease control rating” value was determined as 0%. For the same compound, the “Test B disease control rating” value in assay [5] (50 ppm) came to 98%. In addition, in assay [6] (50 ppm), the “Test E disease control rating” value was found to be 91%.
In the case of `COc1cc(OC)cc(-c2cn(C)c(=O)c(Cl)c2-c2ccc(F)cc2Cl)c1` [Compound 3, 3-chloro-4-(2-chloro-4-fluorophenyl)-5-(3,5-dimethoxyphenyl)-1-methyl-2(11)-pyridinone], in assay [1] (50 ppm), the “Test A disease control rating” value was 99%. The “Test F disease control rating” value in assay [2] (50 ppm) amounted to 100%. The “Test D disease control rating” value in assay [3] (50 ppm) amounted to 65%. The “Test C disease control rating” value in assay [4] (50 ppm) is 0%. Also, the “Test B disease control rating” value in assay [5] (50 ppm) is reported as 100%. Also, in assay [6] (50 ppm), the “Test E disease control rating” value is 100%.
For `COc1cc(OC)c(Cl)c(-c2cn(C)c(=O)c(Cl)c2-c2ccc(F)cc2Cl)c1` [Compound 4, 3-chloro-5-(2-chloro-3,5-dimethoxyphenyl)-4-(2-chloro-4-fluorophenyl)-1-methyl-2(1H)-pyridinone], the pest or weed control at 50 ppm in assay [1] (setting [7]) amounted to 100%; in assay [2] (setting [8]), 100%; in assay [3] (setting [9]) it was 99%; in assay [4] (setting [10]) it was 98%; in assay [5] (setting [11]), 100%; in assay [6] (setting [12]) it was 100%.
`COc1cc(-c2cn(C)c(=O)c(Cl)c2-c2ccc(F)cc2Cl)cc(OC)c1Cl` [Compound 5, 3-chloro-5-(4-chloro-3,5-dimethoxyphenyl)-4-(2-chloro-4-fluorophenyl)-1-methyl-2(1H)-pyridinone]: the pest or weed control at 250 ppm in assay [1] (Zymoseptoria tritici, 250 ppm, read-out: Test A disease control rating) was determined as 100%; in assay [2] (Alternaria solani, 250 ppm, read-out: Test F disease control rating), 99%; in assay [3] (Phakopsora pachyrhizi, 216 h, 250 ppm, read-out: Test D disease control rating), 78%; in assay [4] (Blumeria graminis, 250 ppm, read-out: Test C disease control rating), 0%; in assay [5] (Puccinia recondita, 250 ppm, read-out: Test B disease control rating) it was 100%; in assay [6] (Botrytis cinerea, 250 ppm, read-out: Test E disease control rating), 98%.
Consider `COc1cccc(-c2c(-c3ccc(F)cc3Cl)c(C#N)c(=O)n(C)c2C)c1` [Compound 6], for which the “Test A disease control rating” value in assay [1] (250 ppm) stood at 0%. The “Test F disease control rating” value in assay [2] (250 ppm) came to 0%. The “Test D disease control rating” value in assay [3] (250 ppm) is reported as 0%. For the same compound, the “Test C disease control rating” value in assay [4] (250 ppm) was found to be 89%. Further, the “Test B disease control rating” value in assay [5] (250 ppm) is listed as 0%. In addition, the “Test E disease control rating” value in assay [6] (250 ppm) was found to be 0%.
For `COc1cccc(-c2cn(C)c(=O)c(Cl)c2-c2ccc(F)cc2F)c1` [Compound 8], the “Test A disease control rating” value in assay [1] (250 ppm) is 100%. For the same compound, the “Test F disease control rating” value in assay [2] (250 ppm) was determined as 99%. In assay [3] (250 ppm), the “Test D disease control rating” value is 81%. Also, the “Test C disease control rating” value in assay [4] (250 ppm) was 98%. Also, the “Test B disease control rating” value in assay [5] (250 ppm) came to 100%. For the same compound, the “Test E disease control rating” value in assay [6] (250 ppm) worked out at 99%.
Regarding `CCCOc1ccc(Cl)c(-c2cn(C)c(=O)c(Cl)c2-c2ccc(F)cc2F)c1` [Compound 10], in assay [1] (50 ppm), the “Test A disease control rating” value was found to be 99%. For the same compound, the “Test F disease control rating” value in assay [2] (50 ppm) came out at 0%. In addition, in assay [3] (50 ppm), the “Test D disease control rating” value was found to be 0%. Further, the “Test C disease control rating” value in assay [4] (50 ppm) was 79%. In addition, the “Test B disease control rating” value in assay [5] (50 ppm) is given as 99%. In assay [6] (50 ppm), the “Test E disease control rating” value came out at 94%.
For the compound `Cn1cc(-c2ccccc2)c(-c2c(F)cccc2F)c(Cl)c1=O` [Compound 11], the “Test A disease control rating” value in assay [1] (50 ppm) stood at 99%. In assay [2] (50 ppm), the “Test F disease control rating” value worked out at 94%. For the same compound, the “Test D disease control rating” value in assay [3] (50 ppm) was determined as 0%. For the same compound, the “Test C disease control rating” value in assay [4] (50 ppm) was 0%. In addition, the “Test B disease control rating” value in assay [5] (50 ppm) is 80%. In assay [6] (50 ppm), the “Test E disease control rating” value was found to be 97%.
Consider `COc1cc(OC)cc(-c2cn(C)c(=O)c(C)c2-c2ccc(F)cc2Cl)c1` [Compound 12], for which, in assay [1] (50 ppm), the “Test A disease control rating” value is 100%. In addition, the “Test F disease control rating” value in assay [2] (50 ppm) was 99%. Moreover, the “Test D disease control rating” value in assay [3] (50 ppm) is 83%. Besides, the “Test C disease control rating” value in assay [4] (50 ppm) turned out to be 40%. Moreover, in assay [5] (50 ppm), the “Test B disease control rating” value is 99%. Also, the “Test E disease control rating” value in assay [6] (50 ppm) worked out at 92%.
As to `Cn1cc(-c2cc(F)ccc2Cl)c(-c2ccc(F)cc2Cl)c(C#N)c1=O` [Compound 14], the “Test A disease control rating” value in assay [1] (50 ppm) stood at 100%. For the same compound, the “Test F disease control rating” value in assay [2] (50 ppm) turned out to be 0%. In addition, the “Test D disease control rating” value in assay [3] (50 ppm) is recorded as 0%. The “Test C disease control rating” value in assay [4] (50 ppm) was determined as 0%. Moreover, the “Test B disease control rating” value in assay [5] (50 ppm) was 100%. Moreover, the “Test E disease control rating” value in assay [6] (50 ppm) is reported as 96%.
In the case of `Cn1cc(-c2ccccc2Cl)c(-c2ccc(F)cc2Cl)c(Cl)c1=O` [Compound 15], the “Test A disease control rating” value in assay [1] (50 ppm) was found to be 100%. For the same compound, in assay [2] (50 ppm), the “Test F disease control rating” value turned out to be 0%. For the same compound, the “Test D disease control rating” value in assay [3] (50 ppm) is 0%. The “Test C disease control rating” value in assay [4] (50 ppm) was 69%. The “Test B disease control rating” value in assay [5] (50 ppm) is reported as 100%. In assay [6] (50 ppm), the “Test E disease control rating” value is 88%.
With `Cn1cc(-c2ccc(F)cc2Cl)c(-c2c(F)cccc2F)c(Cl)c1=O` [Compound 16], the “Test A disease control rating” value in assay [1] (50 ppm) was 100%. Also, the “Test F disease control rating” value in assay [2] (50 ppm) was 31%. Besides, in assay [3] (50 ppm), the “Test D disease control rating” value stood at 68%. Besides, the “Test C disease control rating” value in assay [4] (50 ppm) is listed as 0%. In addition, the “Test B disease control rating” value in assay [5] (50 ppm) was 97%. Also, in assay [6] (50 ppm), the “Test E disease control rating” value worked out at 96%.
For `Cn1cc(-c2ccc(F)cc2)c(-c2c(F)cccc2F)c(Cl)c1=O` [Compound 17], in assay [1] (50 ppm), the “Test A disease control rating” value was determined as 100%. Also, the “Test F disease control rating” value in assay [2] (50 ppm) was determined as 100%. The “Test D disease control rating” value in assay [3] (50 ppm) is 75%. Moreover, in assay [4] (50 ppm), the “Test C disease control rating” value was 0%. Moreover, in assay [5] (50 ppm), the “Test B disease control rating” value was determined as 99%. For the same compound, in assay [6] (50 ppm), the “Test E disease control rating” value worked out at 98%.
On to `Cc1c(-c2ccc(F)cc2Cl)c(-c2cc(F)ccc2Cl)cn(C)c1=O` [Compound 18], for which the “Test A disease control rating” value in assay [1] (50 ppm) amounted to 100%. The “Test F disease control rating” value in assay [2] (50 ppm) is 99%. Also, in assay [3] (50 ppm), the “Test D disease control rating” value was 96%. Further, the “Test C disease control rating” value in assay [4] (50 ppm) is 94%. Besides, the “Test B disease control rating” value in assay [5] (50 ppm) turned out to be 100%. Also, the “Test E disease control rating” value in assay [6] (50 ppm) is recorded as 98%.
Consider `COc1cc(OC)cc(-c2cn(OC)c(=O)c(Cl)c2-c2ccc(F)cc2Cl)c1` [Compound 19, 3-chloro-4-(2-chloro-4-fluorophenyl)-5-(3,5-dimethoxyphenyl)-1-methoxy-2(1H)-pyridinone], for which the pest or weed control at 50 ppm in assay [1] (setting [7]) amounted to 58%; in assay [2] (setting [8]) it was 0%; in assay [3] (setting [9]), 11%; in assay [4] (setting [10]), 0%; in assay [5] (setting [11]), 99%; in assay [6] (setting [12]) it was 98%.
As for `COc1ccc(Cl)c(-c2cn(C)c(=O)c(Cl)c2-c2ccccc2Br)c1` [Compound 67], the “Test A disease control rating” value in assay [1] (50 ppm) is listed as 99%. The “Test F disease control rating” value in assay [2] (50 ppm) was determined as 33%. Besides, in assay [3] (50 ppm), the “Test D disease control rating” value is reported as 73%. For the same compound, the “Test C disease control rating” value in assay [4] (50 ppm) turned out to be 56%. Moreover, the “Test E disease control rating” value in assay [6] (50 ppm) is 91%.
